Measurements taken from patent US20180148418A1, “AMIDO-SUBSTITUTED CYCLOHEXANE DERIVATIVES” (Bayer Pharma Aktiengesellschaft, priority 2015, published 2018).
Where a name gives a salt, the structure may show the parent alone.

Experiments:
[1] = molecular target: T1, TNKS2 (Homo sapiens, UniProt Q9H2K2); assay: TNKS2 Assay B (auto-parsylation, [3H]-NAD+ SPA); assay type: biochemical; details: 6 nM TNKS2, auto-parsylation, over night at room temperature
T1 construct: purchased BPS Bioscience, San Diego, USA 80572 (TNKS2 Histone Ribosylation Assay Kit)
T1 sequence (Q9H2K2 1-1166): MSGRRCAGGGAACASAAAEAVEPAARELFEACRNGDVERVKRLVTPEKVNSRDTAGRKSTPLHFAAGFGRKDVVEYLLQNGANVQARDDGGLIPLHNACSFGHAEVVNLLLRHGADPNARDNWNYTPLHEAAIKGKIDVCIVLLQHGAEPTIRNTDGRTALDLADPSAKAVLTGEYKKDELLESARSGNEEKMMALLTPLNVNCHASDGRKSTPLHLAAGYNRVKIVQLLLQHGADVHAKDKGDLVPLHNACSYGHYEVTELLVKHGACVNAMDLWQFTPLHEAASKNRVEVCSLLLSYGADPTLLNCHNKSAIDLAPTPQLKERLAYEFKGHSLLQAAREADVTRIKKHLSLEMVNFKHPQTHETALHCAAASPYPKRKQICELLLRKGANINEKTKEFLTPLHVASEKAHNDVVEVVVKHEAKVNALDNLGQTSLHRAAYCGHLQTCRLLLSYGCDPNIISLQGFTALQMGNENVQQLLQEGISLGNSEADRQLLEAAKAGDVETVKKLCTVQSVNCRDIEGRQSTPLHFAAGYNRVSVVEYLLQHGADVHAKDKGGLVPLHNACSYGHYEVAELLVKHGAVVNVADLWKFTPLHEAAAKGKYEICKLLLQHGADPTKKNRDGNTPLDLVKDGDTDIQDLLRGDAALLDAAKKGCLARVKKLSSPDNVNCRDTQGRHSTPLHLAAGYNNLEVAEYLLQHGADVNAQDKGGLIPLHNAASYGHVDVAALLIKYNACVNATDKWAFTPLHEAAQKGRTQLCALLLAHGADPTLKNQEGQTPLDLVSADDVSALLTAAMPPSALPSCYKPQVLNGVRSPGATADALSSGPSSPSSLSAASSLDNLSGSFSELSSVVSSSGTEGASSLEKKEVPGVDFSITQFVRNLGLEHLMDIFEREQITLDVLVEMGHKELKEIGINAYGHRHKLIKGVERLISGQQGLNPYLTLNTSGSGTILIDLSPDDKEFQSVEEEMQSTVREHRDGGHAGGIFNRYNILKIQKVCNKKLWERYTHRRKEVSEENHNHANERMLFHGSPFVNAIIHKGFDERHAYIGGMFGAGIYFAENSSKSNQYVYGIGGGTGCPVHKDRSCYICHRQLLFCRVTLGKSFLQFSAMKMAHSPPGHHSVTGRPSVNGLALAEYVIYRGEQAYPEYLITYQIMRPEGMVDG

[2] = system: HEK293 cells cotransfected with the FOP control vector; assay: HEK293 FOP assay (control reporter with non-functional TCF elements); assay type: cell-based; details: Homo sapiens, 16 hours
How it was run: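 Stable HEK293 line carrying FOP control reporter (randomized non-functional TCF sites, with pcDNA3), Geneticin-selected, plated 24 h before assay. Stimulated with recombinant human Wnt-3a (2500-5 ng/ml) and compounds 50 μM–15 nM (3.16-fold steps) in CAFTY buffer pH 7.4 with 2 mM Ca2+, 0.01% BSA, run parallel to TOP line.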

Structure (SMILES)	IC50 [1] [nM]	IC50 [2] [nM]
O=C(N[C@H]1CC[C@@]2(CCN(c3ccc(F)cc3)C2=O)CC1)c1cnn2cccnc12 [Example 209, N-[(trans)-2-(4-fluorophenyl)-1-oxo-2-azaspiro[4.5]dec-8-yl]pyrazolo[1,5-a]pyrimidine-3-carboxamide]	240	≥ 50000
Cc1cnc2c(C(=O)N[C@H]3CC[C@@]4(CCN(c5ccc(F)cc5)C4=O)CC3)cnn2c1 [Example 210, N-[(trans)-2-(4-fluorophenyl)-1-oxo-2-azaspiro[4.5]dec-8-yl]-6-methylpyrazolo[1,5-a]pyrimidine-3-carboxamide]	92	25000
Cc1cc(C)n2ncc(C(=O)N[C@H]3CC[C@@]4(CCN(c5ccc(F)cc5)C4=O)CC3)c2n1 [Example 211, N-[(trans)-2-(4-fluorophenyl)-1-oxo-2-azaspiro[4.5]dec-8-yl]-5,7-di methyl pyrazolo[1,5-a]pyrimidine-3-carboxamide]	74	25000
CNC(=O)c1[nH]cnc1C(=O)N[C@H]1CC[C@@]2(CCN(c3ccc(F)cc3)C2=O)CC1 [Example 212, N^4-[(trans)-2-(4-fluorophenyl)-1-oxo-2-azaspiro[4.5]dec-8-yl]-N^5-methyl-1H-imidazole-4,5-dicarboxamide]	290	38000
CCNC(=O)c1[nH]cnc1C(=O)N[C@H]1CC[C@@]2(CCN(c3ccc(F)cc3)C2=O)CC1 [Example 213, N^5-ethyl-N^4-[(trans)-2-(4-fluorophenyl)-1-oxo-2-azaspiro[4.5]dec-8-yl]-1H-imidazole-4,5-dicarboxamide]	220	30000
O=C(N[C@H]1CC[C@@]2(CCN(c3ccc(F)cc3Cl)C2=O)CC1)c1cnn2cc(CCO)cnc12 [Example 214, N-[(trans)-2-(2-chloro-4-fluorophenyl)-1-oxo-2-azaspiro[4.5]dec-8-yl]-6-(2-hydroxyethyl)pyrazolo[1,5-a]pyrimidine-3-carboxamide]	5.3	≥ 50000
CNc1ccn2ncc(C(=O)N[C@H]3CC[C@@]4(CCN(c5ccc(F)cc5Cl)C4=O)CC3)c2n1 [Example 215, N-[(trans)-2-(2-chloro-4-fluorophenyl)-1-oxo-2-azaspiro[4.5]dec-8-yl]-5-(methylamino)pyrazolo[1,5-a]pyrimidine-3-carboxamide]	2.2	≥ 50000
Cc1nn2cccnc2c1C(=O)N[C@H]1CC[C@@]2(CCN(c3ccc(F)cc3Cl)C2=O)CC1 [Example 216, N-[(trans)-2-(2-chloro-4-fluorophenyl)-1-oxo-2-azaspiro[4.5]dec-8-yl]-2-methylpyrazolo[1,5-a]pyrimidine-3-carboxamide]	340	≥ 50000
CN(C)c1ccn2ncc(C(=O)N[C@H]3CC[C@@]4(CCN(c5ccc(F)cc5Cl)C4=O)CC3)c2n1 [Example 217, N-[(trans)-2-(2-chloro-4-fluorophenyl)-1-oxo-2-azaspiro[4.5]dec-8-yl]-5-(dimethylamino)pyrazolo[1,5-a]pyrimidine-3-carboxamide]	1.7	≥ 50000
COc1ccn2ncc(C(=O)N[C@H]3CC[C@@]4(CCN(c5ccc(F)cc5Cl)C4=O)CC3)c2n1 [Example 218, N-[(trans)-2-(2-chloro-4-fluorophenyl)-1-oxo-2-azaspiro[4.5]dec-8-yl]-5-methoxypyrazolo[1,5-a]pyrimidine-3-carboxamide]	4.8	≥ 50000
Cc1ccn2ncc(C(=O)N[C@H]3CC[C@@]4(CCN(c5ccc(F)cc5Cl)C4=O)CC3)c2n1 [Example 221, N-[(trans)-2-(2-chloro-4-fluorophenyl)-1-oxo-2-azaspiro[4.5]dec-8-yl]-5-methylpyrazolo[1,5-a]pyrimidine-3-carboxamide]	3.8	18000
Cc1ccnc2c(C(=O)N[C@H]3CC[C@@]4(CCN(c5ccc(F)cc5Cl)C4=O)CC3)cnn12 [Example 222, N-[(trans)-2-(2-chloro-4-fluorophenyl)-1-oxo-2-azaspiro[4.5]dec-8-yl]-7-methylpyrazolo[1,5-a]pyrimidine-3-carboxamide]	6.5	≥ 50000
Cc1cc(C(F)F)n2ncc(C(=O)N[C@H]3CC[C@@]4(CCN(c5ccc(F)cc5Cl)C4=O)CC3)c2n1 [Example 224, N-[(trans)-2-(2-chloro-4-fluorophenyl)-1-oxo-2-azaspiro[4.5]dec-8-yl]-7-(difluoromethyl)-5-methylpyrazolo[1,5-a]pyrimidine-3-carboxamide]	11	≥ 50000
CC(C)(C)OC(=O)N1CCN(c2ccn3ncc(C(=O)N[C@H]4CC[C@@]5(CCN(c6ccc(F)cc6Cl)C5=O)CC4)c3n2)CC1 [Example 225, tert-butyl 4-(3-{[(trans)-2-(2-chloro-4-fluorophenyl)-1-oxo-2-azaspiro[4.5]dec-8-yl]carbamoyl}pyrazolo[1,5-a]pyrimidin-5-yl)piperazine-1-carboxylate]	2.5	≥ 50000
O=C(N[C@H]1CC[C@@]2(CCN(c3ccc(F)cc3Cl)C2=O)CC1)c1cnn2ccc(N3CCNCC3)nc12 [Example 226, N-[(trans)-2-(2-chloro-4-fluorophenyl)-1-oxo-2-azaspiro[4.5]dec-8-yl]-5-(piperazin-1-yl)pyrazolo[1,5-a]pyrimidine-3-carboxamide hydrochloric acid salt]	3.3	≥ 500
O=C(N[C@H]1CC[C@@]2(CCN(c3ccc(F)cc3Cl)C2=O)CC1)c1cnn2ccc(N3CCCC3)nc12 [Example 232, N-[(trans)-2-(2-chloro-4-fluorophenyl)-1-oxo-2-azaspiro[4.5]dec-8-yl]-5-(pyrrolidin-1-yl)pyrazolo[1,5-a]pyrimidine-3-carboxamide]	3.3	≥ 50000
O=C(N[C@H]1CC[C@@]2(CCN(c3ccc(F)cc3Cl)C2=O)CC1)c1cnn2c(C(F)(F)F)ccnc12 [Example 233, N-[(trans)-2-(2-chloro-4-fluorophenyl)-1-oxo-2-azaspiro[4.5]dec-8-yl]-7-(trifluoromethyl)pyrazolo[1,5-a]pyrimidine-3-carboxamide]	25	≥ 50000
O=C(N[C@H]1CC[C@@]2(CCN(c3ccccc3Cl)C2=O)CC1)c1cnn2cccnc12 [Example 256, N-[(trans)-2-(2-chlorophenyl)-1-oxo-2-azaspiro[4.5]dec-8-yl]pyrazolo[1,5-a]pyrimidine-3-carboxamide]	12	≥ 50000
Cc1cc(C)n2ncc(C(=O)N[C@H]3CC[C@@]4(CCN(c5ccccc5Cl)C4=O)CC3)c2n1 [Example 257, N-[(trans)-2-(2-chlorophenyl)-1-oxo-2-azaspiro[4.5]dec-8-yl]-5,7-dimethylpyrazolo[1,5-a]pyrimidine-3-carboxamide]	5.7	≥ 50000
CCNC(=O)c1nc[nH]c1C(=O)N[C@H]1CC[C@@]2(CCN(c3ccccc3Cl)C2=O)CC1 [Example 258, N^5-[(trans)-2-(2-chlorophenyl)-1-oxo-2-azaspiro[4.5]dec-8-yl]-N^4-ethyl-1H-imidazole-4,5-dicarboxamide]	6.3	≥ 50000
COCCNC(=O)c1nc[nH]c1C(=O)N[C@H]1CC[C@@]2(CCN(c3ccccc3Cl)C2=O)CC1 [Example 259, N^5-[(trans)-2-(2-chlorophenyl)-1-oxo-2-azaspiro[4.5]dec-8-yl]-N^4-(2-methoxyethyl)-1H-imidazole-4,5-dicarboxamide]	6.3	≥ 50000
CC1CCN(CCNC(=O)c2nc[nH]c2C(=O)N[C@H]2CC[C@@]3(CCN(c4ccccc4Cl)C3=O)CC2)CC1 [Example 260, N^5-[(trans)-2-(2-chlorophenyl)-1-oxo-2-azaspiro[4.5]dec-8-yl]-N^4-[2-(4-methylpiperidin-1-yl)ethyl]-1H-imidazole-4,5-dicarboxamide]	1.7	≥ 50000
CNC(=O)c1nc[nH]c1C(=O)N[C@H]1CC[C@@]2(CCN(c3ccccc3Cl)C2=O)CC1 [Example 264, N^5-[(trans)-2-(2-chlorophenyl)-1-oxo-2-azaspiro[4.5]dec-8-yl]-N^4-methyl-1H-imidazole-4,5-dicarboxamide]	4	33000
